Measured values: ChEMBL document CHEMBL5518174 (Eur J Med Chem, 2024)
The source made the active and inactive calls. The calls are words filed in the database; no cut-off is given here.

What was measured:
Histone deacetylase 8 = molecular target: T1, Histone deacetylase 8 (Homo sapiens, UniProt Q9BY41); test: Inhibition of recombinant human HDAC8 using acetylated luminogenic substrate incubated for 10 mins by ultra-glo recombinant firefly luciferase based luminescence assay
T1 sequence (Q9BY41 whole entry): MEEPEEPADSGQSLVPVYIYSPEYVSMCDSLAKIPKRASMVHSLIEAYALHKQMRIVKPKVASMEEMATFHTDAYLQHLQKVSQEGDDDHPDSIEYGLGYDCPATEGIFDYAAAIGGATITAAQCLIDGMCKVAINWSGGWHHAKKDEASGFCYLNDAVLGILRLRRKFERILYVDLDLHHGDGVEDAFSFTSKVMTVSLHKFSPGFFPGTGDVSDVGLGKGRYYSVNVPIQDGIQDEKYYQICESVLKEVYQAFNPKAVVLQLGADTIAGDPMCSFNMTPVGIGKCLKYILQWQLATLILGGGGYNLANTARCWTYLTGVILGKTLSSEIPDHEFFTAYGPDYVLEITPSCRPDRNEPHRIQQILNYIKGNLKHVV

MDA-MB-231 [1] = test: Antitumor activity against human MDA-MB-231 cells xenografted in athymic nude BALB/c mouse assessed as average tumor size at 3 mg/kg, ip administered 5 times a week for 7 weeks and measured on day 47 (reference value: 15.4 +/- 5.3 mm3); type: functional; settings: time 47 day
NCI-H1975 [2] = test: Antitumor activity against human NCI-H1975 cells xenografted in athymic nude BALB/c mouse assessed as reduction in tumor growth at 6 mg/kg, ip administered 5 times a week for 3 weeks by vernier caliper method; type: functional, organism-based
[3] = Downregulation of HDAC10 protein expression in human MDA-MB-231 cells assessed as fold change at 0.1 uM incubated for 24 hrs by immunoblotting analysis (reference value: 1); type: functional
[4] = Toxicity in athymic nude BALB/c mouse xenografted with human NCI-H1975 cells assessed as reduction in body weight at 6 mg/kg, ip administered 5 times a week for 3 weeks and measured on day 22; type: organism-based; settings: in vivo, 528 h, time 22 day
[5] = Downregulation of HDAC11 protein expression in human MDA-MB-231 cells assessed as fold change at 0.1 uM incubated for 24 hrs by immunoblotting analysis (reference value: 1); type: functional
[6] = Downregulation of HDAC3 protein expression in human MDA-MB-231 cells assessed as fold change at 0.05 uM incubated for 24 hrs by immunoblotting analysis (reference value: 1); type: functional
[7] = Effect on HDAC8 protein expression in human MDA-MB-231 cells assessed as fold change at 0.1 uM incubated for 24 hrs by immunoblotting analysis (reference value: 1); type: functional
MDA-MB-231 [8] = test: Antitumor activity against human MDA-MB-231 cells xenografted in athymic nude BALB/c mouse assessed as reduction in tumor growth at 3 mg/kg, ip administered 5 times a week for 7 weeks by vernier caliper method; type: functional, organism-based
MDA-MB-231 [9] = test: Cytotoxicity against human MDA-MB-231 cells assessed as inhibition of cell growth incubated for 48 hrs by Celltiter-glo assay; type: functional, cell-based; settings: MDA-MB-231, 48 h
[10] = Effect on HDAC11 protein expression in human NCI-H1975 cells assessed as fold change at 0.1 uM incubated for 24 hrs by immunoblotting analysis (reference value: 1); type: functional
Histone deacetylase = test: Inhibition of HDAC in human HeLa cells nuclear extract; type: subcellular, Nucleus
Histone deacetylase 2 = Histone deacetylase 2 (Homo sapiens, UniProt Q92769); test: Inhibition of recombinant human HDAC2 using acetylated luminogenic substrate incubated for 10 mins by ultra-glo recombinant firefly luciferase based luminescence assay
[11] = Downregulation of HDAC3 protein expression in human NCI-H1975 cells assessed as fold change at 0.05 uM incubated for 24 hrs by immunoblotting analysis (reference value: 1); type: functional
[12] = Toxicity in athymic nude BALB/c mouse xenografted with human MDA-MB-231 cells assessed as effect on BUN level in serum at 3 mg/kg, ip administered 5 times a week for 7 weeks; type: organism-based; settings: in vivo, 1176 h
NCI-H1975 [13] = test: Antitumor activity against human NCI-H1975 cells xenografted in athymic nude BALB/c mouse assessed as cell apoptosis in tumor region at 6 mg/kg, ip administered 5 times a week for 3 weeks and measured on day 22 by TUNEL assay; type: functional, organism-based; settings: time 22.0 day
[14] = Downregulation of HDAC7 protein expression in human NCI-H1975 cells assessed as fold change at 0.05 uM incubated for 24 hrs by immunoblotting analysis (reference value: 1); type: functional
[15] = Effect on HDAC11 protein expression in human NCI-H1975 cells assessed as fold change at 0.05 uM incubated for 24 hrs by immunoblotting analysis (reference value: 1); type: functional
[16] = Upregulation of acetylated H3 protein expression in human MDA-MB-231 cells assessed as fold change at 0.1 uM incubated for 24 hrs by immunoblotting analysis (reference value: 1); type: functional
[17] = Downregulation of HDAC1 protein expression in human MDA-MB-231 cells assessed as fold change at 0.1 uM incubated for 24 hrs by immunoblotting analysis (reference value: 1); type: functional
[18] = Upregulation of acetylated H3 protein expression in human MDA-MB-231 cells assessed as fold change at 0.05 uM incubated for 24 hrs by immunoblotting analysis (reference value: 1); type: functional
[19] = Downregulation of HDAC9 protein expression in human NCI-H1975 cells assessed as fold change at 0.1 uM incubated for 24 hrs by immunoblotting analysis (reference value: 1); type: functional
[20] = Downregulation of HDAC10 protein expression in human NCI-H1975 cells assessed as fold change at 0.1 uM incubated for 24 hrs by immunoblotting analysis (reference value: 1); type: functional
[21] = Effect on HDAC2 protein expression in human MDA-MB-231 cells assessed as fold change at 0.05 uM incubated for 24 hrs by immunoblotting analysis (reference value: 1); type: functional
Histone deacetylase 4 = Histone deacetylase 4 (Homo sapiens, UniProt P56524); test: Inhibition of recombinant human HDAC4 using acetylated luminogenic substrate incubated for 10 mins by ultra-glo recombinant firefly luciferase based luminescence assay
Histone deacetylase 9 = Histone deacetylase 9 (Homo sapiens, UniProt Q9UKV0); test: Inhibition of recombinant human HDAC9 using acetylated luminogenic substrate incubated for 10 mins by ultra-glo recombinant firefly luciferase based luminescence assay
[22] = Downregulation of HDAC6 protein expression in human NCI-H1975 cells assessed as fold change at 0.1 uM incubated for 24 hrs by immunoblotting analysis (reference value: 1); type: functional
Histone deacetylase 5 = Histone deacetylase 5 (Homo sapiens, UniProt Q9UQL6); test: Inhibition of recombinant human HDAC5 using acetylated luminogenic substrate incubated for 10 mins by ultra-glo recombinant firefly luciferase based luminescence assay
[23] = Downregulation of HDAC1 protein expression in human NCI-H1975 cells assessed as fold change at 0.1 uM incubated for 24 hrs by immunoblotting analysis (reference value: 1); type: functional
[24] = Downregulation of HDAC7 protein expression in human NCI-H1975 cells assessed as fold change at 0.1 uM incubated for 24 hrs by immunoblotting analysis (reference value: 1); type: functional

Chain of Histone deacetylase 4 (P56524 whole entry): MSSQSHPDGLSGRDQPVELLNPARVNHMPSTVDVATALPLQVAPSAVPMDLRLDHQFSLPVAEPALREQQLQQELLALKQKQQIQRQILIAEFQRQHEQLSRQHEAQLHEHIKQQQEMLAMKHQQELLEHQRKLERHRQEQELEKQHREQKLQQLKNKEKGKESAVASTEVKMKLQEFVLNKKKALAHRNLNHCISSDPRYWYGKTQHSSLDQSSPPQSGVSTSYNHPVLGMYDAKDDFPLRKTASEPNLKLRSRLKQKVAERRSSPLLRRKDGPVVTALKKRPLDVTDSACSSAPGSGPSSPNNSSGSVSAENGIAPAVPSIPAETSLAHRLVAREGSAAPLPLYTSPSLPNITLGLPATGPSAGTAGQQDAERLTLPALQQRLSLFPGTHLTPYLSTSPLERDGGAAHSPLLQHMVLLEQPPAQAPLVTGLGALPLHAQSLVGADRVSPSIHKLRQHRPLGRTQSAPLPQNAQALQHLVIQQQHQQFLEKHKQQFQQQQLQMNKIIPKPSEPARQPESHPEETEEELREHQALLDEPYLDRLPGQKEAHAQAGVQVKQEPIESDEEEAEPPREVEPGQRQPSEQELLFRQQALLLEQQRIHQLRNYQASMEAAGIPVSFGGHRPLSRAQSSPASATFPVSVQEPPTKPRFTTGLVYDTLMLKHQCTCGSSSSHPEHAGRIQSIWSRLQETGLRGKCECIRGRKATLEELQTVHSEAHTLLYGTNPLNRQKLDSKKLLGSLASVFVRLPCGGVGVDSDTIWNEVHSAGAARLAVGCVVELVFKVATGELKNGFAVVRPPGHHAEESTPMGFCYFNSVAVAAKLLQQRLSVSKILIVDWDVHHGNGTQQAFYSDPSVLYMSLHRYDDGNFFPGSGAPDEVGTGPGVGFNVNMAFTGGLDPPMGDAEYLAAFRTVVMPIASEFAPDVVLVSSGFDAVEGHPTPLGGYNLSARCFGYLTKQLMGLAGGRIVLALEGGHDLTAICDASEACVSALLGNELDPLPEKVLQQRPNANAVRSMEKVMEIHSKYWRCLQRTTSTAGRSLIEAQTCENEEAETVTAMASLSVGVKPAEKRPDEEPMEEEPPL
Chain of Histone deacetylase 9 (Q9UKV0 whole entry): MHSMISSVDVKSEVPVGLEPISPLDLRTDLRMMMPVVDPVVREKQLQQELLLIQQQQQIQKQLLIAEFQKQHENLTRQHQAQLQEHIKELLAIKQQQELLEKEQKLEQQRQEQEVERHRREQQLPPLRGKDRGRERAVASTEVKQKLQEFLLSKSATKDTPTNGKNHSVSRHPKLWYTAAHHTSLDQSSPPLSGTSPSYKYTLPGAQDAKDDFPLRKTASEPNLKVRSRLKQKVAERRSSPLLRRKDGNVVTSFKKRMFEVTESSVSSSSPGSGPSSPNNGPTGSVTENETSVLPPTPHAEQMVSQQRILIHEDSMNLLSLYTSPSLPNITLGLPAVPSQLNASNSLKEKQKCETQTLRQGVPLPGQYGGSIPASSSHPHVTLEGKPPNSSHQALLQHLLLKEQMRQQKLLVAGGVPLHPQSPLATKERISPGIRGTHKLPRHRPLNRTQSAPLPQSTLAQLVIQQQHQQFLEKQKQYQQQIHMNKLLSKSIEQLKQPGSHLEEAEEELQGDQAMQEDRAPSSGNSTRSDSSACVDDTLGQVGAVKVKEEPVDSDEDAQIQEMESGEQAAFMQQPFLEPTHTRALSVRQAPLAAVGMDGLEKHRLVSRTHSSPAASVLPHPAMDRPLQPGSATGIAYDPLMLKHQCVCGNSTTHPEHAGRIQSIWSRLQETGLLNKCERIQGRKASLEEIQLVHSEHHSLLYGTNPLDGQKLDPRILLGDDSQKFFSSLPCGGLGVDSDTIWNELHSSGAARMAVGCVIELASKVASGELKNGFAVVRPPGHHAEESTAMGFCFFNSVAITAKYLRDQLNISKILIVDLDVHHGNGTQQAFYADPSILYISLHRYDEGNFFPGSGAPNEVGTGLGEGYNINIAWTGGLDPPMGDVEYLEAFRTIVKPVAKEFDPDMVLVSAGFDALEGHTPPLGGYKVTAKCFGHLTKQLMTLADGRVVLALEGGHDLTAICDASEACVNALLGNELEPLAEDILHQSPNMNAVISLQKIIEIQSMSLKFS
Chain of Histone deacetylase 2 (Q92769 whole entry): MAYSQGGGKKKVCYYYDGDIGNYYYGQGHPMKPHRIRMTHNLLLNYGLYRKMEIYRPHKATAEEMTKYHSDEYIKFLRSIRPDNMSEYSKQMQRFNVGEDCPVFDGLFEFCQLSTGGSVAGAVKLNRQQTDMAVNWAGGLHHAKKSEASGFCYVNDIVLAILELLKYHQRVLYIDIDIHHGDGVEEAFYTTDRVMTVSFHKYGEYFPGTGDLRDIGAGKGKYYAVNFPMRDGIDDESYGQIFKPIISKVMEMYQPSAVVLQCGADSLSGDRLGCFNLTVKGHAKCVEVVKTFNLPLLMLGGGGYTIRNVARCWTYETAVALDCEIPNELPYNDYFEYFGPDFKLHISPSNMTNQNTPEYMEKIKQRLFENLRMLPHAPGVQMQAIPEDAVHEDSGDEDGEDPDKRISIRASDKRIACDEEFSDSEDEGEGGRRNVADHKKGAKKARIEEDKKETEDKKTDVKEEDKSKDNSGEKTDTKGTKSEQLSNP
Chain of Histone deacetylase 5 (Q9UQL6 whole entry): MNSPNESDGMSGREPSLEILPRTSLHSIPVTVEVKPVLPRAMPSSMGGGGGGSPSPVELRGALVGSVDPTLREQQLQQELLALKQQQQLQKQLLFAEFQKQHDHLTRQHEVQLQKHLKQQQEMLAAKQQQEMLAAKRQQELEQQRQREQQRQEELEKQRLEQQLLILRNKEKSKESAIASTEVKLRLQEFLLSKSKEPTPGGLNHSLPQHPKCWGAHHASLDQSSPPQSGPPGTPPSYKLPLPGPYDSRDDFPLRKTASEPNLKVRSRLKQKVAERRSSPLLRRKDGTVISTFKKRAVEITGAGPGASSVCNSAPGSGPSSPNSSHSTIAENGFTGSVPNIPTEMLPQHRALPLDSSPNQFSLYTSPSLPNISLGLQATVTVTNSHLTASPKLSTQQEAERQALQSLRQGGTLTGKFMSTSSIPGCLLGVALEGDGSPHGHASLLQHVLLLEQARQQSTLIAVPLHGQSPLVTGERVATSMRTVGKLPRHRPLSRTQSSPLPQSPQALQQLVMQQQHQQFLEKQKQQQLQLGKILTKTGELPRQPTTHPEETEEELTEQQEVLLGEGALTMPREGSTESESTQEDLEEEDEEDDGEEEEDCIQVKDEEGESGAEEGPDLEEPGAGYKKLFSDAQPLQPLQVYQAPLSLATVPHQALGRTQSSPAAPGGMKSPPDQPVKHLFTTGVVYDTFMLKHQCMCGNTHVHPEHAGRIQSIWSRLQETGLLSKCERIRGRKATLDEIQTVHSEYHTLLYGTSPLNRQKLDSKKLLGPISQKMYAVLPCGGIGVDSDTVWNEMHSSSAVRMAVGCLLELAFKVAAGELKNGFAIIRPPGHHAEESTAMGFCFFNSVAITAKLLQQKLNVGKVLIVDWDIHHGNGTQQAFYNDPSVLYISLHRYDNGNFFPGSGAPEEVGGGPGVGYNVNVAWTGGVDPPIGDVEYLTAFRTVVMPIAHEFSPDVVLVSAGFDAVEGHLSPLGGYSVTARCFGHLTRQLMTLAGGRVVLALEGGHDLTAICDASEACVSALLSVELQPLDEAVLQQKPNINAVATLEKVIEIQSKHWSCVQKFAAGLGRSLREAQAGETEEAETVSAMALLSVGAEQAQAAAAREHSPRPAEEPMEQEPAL

CCOc1ccc(-c2nc(C(=O)NCc3ccc(C(=O)NO)cc3)c3[nH]c(=O)n(-c4cccnc4OC)c3n2)cn1
IC50 (Histone deacetylase 8): 138 nM
Activity (MDA-MB-231 [1]): 1.7 mm3
Activity (NCI-H1975 [2]): Active
fold change (FC) [3]: 0.88
Activity [4]: Non-Toxic
fold change (FC) [5]: 0.2
fold change (FC) [6]: 0.82
fold change (FC) [7]: 1.08
Activity (MDA-MB-231 [8]): Active
IC50 (MDA-MB-231 [9]): 510 nM
fold change (FC) [10]: 1.85
IC50 (Histone deacetylase): 0.04 µM
IC50 (Histone deacetylase 2): 11.5 nM
fold change (FC) [11]: 0.82
Activity [12]: Non-Toxic
Activity (NCI-H1975 [13]): Active
fold change (FC) [14]: 0.94
fold change (FC) [15]: 1.15
fold change (FC) [16]: 1.35
fold change (FC) [17]: 0.88
fold change (FC) [18]: 1.29
fold change (FC) [19]: 0.33
fold change (FC) [20]: 0.9
fold change (FC) [21]: 1.18
IC50 (Histone deacetylase 4): > 1000 nM
IC50 (Histone deacetylase 9): 19.7 nM
fold change (FC) [22]: 0.41
IC50 (Histone deacetylase 5): > 1000 nM
fold change (FC) [23]: 0.95
fold change (FC) [24]: 0.79
